Reference: US8278289B2, “Boroxine composition for removal of skin changes” (priority 2006, dated 2012)

Tests used:
mouse fibro-sarcoma FsaR = assay: Cytotoxic effect on mouse fibro-sarcoma FsaR (crystal violet viability); assay type: cell-based; details: viable cells by absorbance at 590 nm after 24 hours with substance; XS100 = dosage 0.5 μg; variation max 10%
Experimental: (§1) An investigation of anti-tumor activity of the boroxine compound (XS) was conducted on cell lines of mouse fibro-sarcoma FsaR and mouse carcinoma SCC VII.
(§2) Cell lines (mouse fibro-sarcoma FsaR and mouse carcinoma SCC VII) were incubated at optimal conditions for 24 hours, followed by addition of tested substances in a dosage of 0.5 μg (XS100) and combinations with Li (lithium) and SNP (sodium-nitroprusside) Li (lithium) is blocker of GSK-3 (glycogen-synthetase-kinase), an enzyme involved in pathways that modulate cell's death. SNP (sodium-nitroprusside) is modulator of pro-apoptotic protein p53 (tumor suppressor protein).
(§3) Cells were additionally incubated for 24 hours in the presence of the substances. Later, cells were fixed by glutaraldehyde and stained in 0.1% crystal violet. Stain attached to the viable cells was extracted by 0.2% Triton-X 100 and extract absorbance was determined at 590 nm. Value of absorbance is proportional with viable cells number.
(§4) The following results have been obtained (the observed variation of the observed values are a maximum of 10%).

[1] = tested on: mouse carcinoma cells SCC VII; assay: Cytotoxic effect on mouse carcinoma cells SCC VII (crystal violet viability); assay type: cell-based; details: viable cells by absorbance at 590 nm after 24 hours with substance; XS100 = dosage 0.5 μg; variation max 10%
Experimental: as §1, §2, §3, §4

K2[B3O3F4OH] [XS100]
% of control (mouse fibro-sarcoma FsaR): 21 % of control | % of control [1]: 42 % of control
